{"source": "ChEMBL document CHEMBL3804802", "about": "“Novel sulfonamide bearing coumarin scaffolds as selective inhibitors of tumor associated carbonic anhydrase isoforms IX and XII” (Bioorg Med Chem, 2016)", "data": [{"biological_target": "Carbonic anhydrase 9 (Homo sapiens, UniProt Q16790)", "test": "Inhibition of human carbonic anhydrase 9 using saturated CO2 as substrate incubated for 10 mins prior to testing by stopped-flow CO2 hydrase assay", "units": {"Ki": "µM"}, "values": [{"molecule": "NS(=O)(=O)c1ccc2c(c1)sc1nc(-c3cc4ccccc4oc3=O)cn12", "Ki": 0.0437}, {"molecule": "NS(=O)(=O)c1ccc2c(c1)sc1nc(-c3cc4cc(Cl)ccc4oc3=O)cn12", "Ki": 0.0114}, {"molecule": "NS(=O)(=O)c1ccc2c(c1)sc1nc(-c3cc4cc(Br)ccc4oc3=O)cn12", "Ki": 0.0249}, {"molecule": "NS(=O)(=O)c1ccc(Nc2nc(-c3cc4cc(Br)ccc4oc3=O)cs2)cc1", "Ki": 0.0236}, {"molecule": "NS(=O)(=O)c1ccc(-n2cc(/C=N\\Nc3nc(-c4cc5cc(Br)ccc5oc4=O)cs3)c(-c3ccccc3)n2)cc1", "Ki": 0.0216}, {"molecule": "NS(=O)(=O)c1ccc(-n2cc(/C=N\\Nc3nc(-c4cc5ccccc5oc4=O)cs3)c(-c3ccc(F)cc3)n2)cc1", "Ki": 0.00228}, {"molecule": "NS(=O)(=O)c1ccc(-n2cc(/C=N\\Nc3nc(-c4cc5cc(Br)ccc5oc4=O)cs3)c(-c3ccc(F)cc3)n2)cc1", "Ki": 0.0265}, {"molecule": "Cc1ccc(-c2nn(-c3ccc(S(N)(=O)=O)cc3)cc2/C=N\\Nc2nc(-c3cc4ccccc4oc3=O)cs2)cc1", "Ki": 0.0286}, {"molecule": "Cc1ccc(-c2nn(-c3ccc(S(N)(=O)=O)cc3)cc2/C=N\\Nc2nc(-c3cc4cc(Cl)ccc4oc3=O)cs2)cc1", "Ki": 0.0245}, {"molecule": "C/C(=N\\Nc1ccc(S(N)(=O)=O)cc1)c1cc2ccccc2oc1=O", "Ki": 0.0586}, {"molecule": "NS(=O)(=O)c1ccc(-n2cc(/C=N\\Nc3nc(-c4cc5ccccc5oc4=O)cs3)c(-c3ccccc3)n2)cc1", "Ki": 0.0197}, {"molecule": "NS(=O)(=O)c1ccc(Nc2nc(-c3cc4cc(Cl)ccc4oc3=O)cs2)cc1", "Ki": 0.025}, {"molecule": "COc1ccc(-c2nn(-c3ccc(S(N)(=O)=O)cc3)cc2/C=N\\Nc2nc(-c3cc4cc(Cl)ccc4oc3=O)cs2)cc1", "Ki": 0.0204}, {"molecule": "NS(=O)(=O)c1ccc(-n2cc(/C=N\\Nc3nc(-c4cc5cc(Cl)ccc5oc4=O)cs3)c(-c3ccccc3)n2)cc1", "Ki": 0.0283}, {"molecule": "COc1ccc(-c2nn(-c3ccc(S(N)(=O)=O)cc3)cc2/C=N\\Nc2nc(-c3cc4ccccc4oc3=O)cs2)cc1", "Ki": 0.0216}, {"molecule": "NS(=O)(=O)c1ccc(Nc2nc(-c3cc4ccccc4oc3=O)cs2)cc1", "Ki": 0.0238}, {"molecule": "NS(=O)(=O)c1ccc(-n2cc(/C=N\\Nc3nc(-c4cc5cc(Cl)ccc5oc4=O)cs3)c(-c3ccc(Cl)cc3)n2)cc1", "Ki": 0.0281}, {"molecule": "NS(=O)(=O)c1ccc(-n2cc(/C=N\\Nc3nc(-c4cc5ccccc5oc4=O)cs3)c(-c3ccc(Cl)cc3)n2)cc1", "Ki": 0.00232}, {"molecule": "C/C(=N\\Nc1ccc(S(N)(=O)=O)cc1)c1cc2cc(Cl)ccc2oc1=O", "Ki": 0.00235}, {"molecule": "C/C(=N\\Nc1ccc(S(N)(=O)=O)cc1)c1cc2cc(Br)ccc2oc1=O", "Ki": 0.0236}, {"molecule": "Cc1ccc(-c2nn(-c3ccc(S(N)(=O)=O)cc3)cc2/C=N\\Nc2nc(-c3cc4cc(Br)ccc4oc3=O)cs2)cc1", "Ki": 0.026}, {"molecule": "NS(=O)(=O)c1ccc(-n2cc(/C=N\\Nc3nc(-c4cc5cc(Cl)ccc5oc4=O)cs3)c(-c3ccc(F)cc3)n2)cc1", "Ki": 0.00254}, {"molecule": "NS(=O)(=O)c1ccc(-n2cc(/C=N\\Nc3nc(-c4cc5cc(Br)ccc5oc4=O)cs3)c(-c3ccc(Cl)cc3)n2)cc1", "Ki": 0.0231}, {"molecule": "COc1ccc(-c2nn(-c3ccc(S(N)(=O)=O)cc3)cc2/C=N\\Nc2nc(-c3cc4cc(Br)ccc4oc3=O)cs2)cc1", "Ki": 0.0201}]}]}
